For 6 compounds, EC50 results are on record in paper PMC7405012, “Detection of Chaetomium globosum, Ch. cochliodes and Ch. rectangulare during the Diversity Tracking of Mycotoxin-Producing Chaetomium-like Isolates Obtained in Buildings in Finland” (Toxins, 2020).

Values after ≈ are worked out from the molar mass of the structure shown. Where two headings read alike, the source gives them in different places. A value given as a limit tells only on which side of the number the result lay.

The EC50 is the concentration giving half of the maximal effect.

Holding throughout (type): cell-based
For assay [1], the system named is murine neuroblastoma cells (MNA). Kind of assay: Inhibition of cell proliferation (ICP) assay, MNA. How it is done: The plate-grown biomass of the fungal pure cultures (100–300 mg) was extracted with ethanol as described earlier. The toxicity assays, namely BSMI assay after exposure for 30 min (rapid inhibition) and for one day (slow inhibition), SMID assay and ICP assay, were all described previously. The toxicity assays involving the ethanol extracts obtained from pure fungal cultures were performed using porcine cells (sperms and somatic cell lines) as indicators according to methods described before. The calculation of EC50—the half maximal effective concentration for the ethanol-dry substances and pure mycotoxins in the BSMI, SMID and ICP assays—were described previously.
The continuous cell line PK-15 (porcine kidney cells) and a malignant cell line (MNA cell line) provided by EVIRA (Helsinki, Finland) were used in the ICP assay. 5,5′,6,6′-tetrachloro-1,1′,3,3′-tetraethyl-benzimidazolylcarbocyanine iodide (JC-1, 3520-43-2), PI (25535-16-4) and calcein-AM (148504-34-1) were obtained from Invitrogen (Carlsbad, CA, USA). Alamethicin A4665 (T. arundinaceum) (CAS 27061-78-5), a mixture of alamethicin F50 peptaibols (MW 1962, 1976, 1976 and 1990), chaetoglobosin A (CAS 50335-03-0), sterigmatocystin (CAS 10048-13-5) and ochratoxin A (CAS 303-47-9) were obtained from Sigma-Aldrich (St. Louis, MO, USA). Malt extract and tryptic soy agar were obtained from Scharlab (Barcelona, Spain). The other chemicals were of analytical grade and were purchased from local suppliers. The biocides and the wetting agent Genapol-080 were purchased from Sigma-Aldrich Finland. The fungicide Boracol 10Rh was obtained from a local supplier. The selected biocides were Borax (600 µg mL^−1; sodium tetraborate, CAS: 1330-43-4), Boracol 10Rh containing disodium octaborate tetrahydrate (CAS: 12280-03-04) and didecyldimethylammonium chloride [CAS: 7173-51-5]), PHMB (CAS: 27083-27-8), phenoxyethanol (CAS: 122-99-6), chloramine, triclosan (5-Chloro-2-(2,4-dichlorophenoxy)phenol, CAS: 3380-34-5) and the wetting agent Genapol X-080 (CAS: 9043-30-5). Genapol X-080 and the biocides were purchased from Sigma-Aldrich, except for Boracol 10Rh, which was purchased from a local supplier.

In assay [2] the test system is Aspergillus section Nigri Asp33b. In words: Resistance to biocides: conidial germination. As to conditions: strain Asp33b, indoor Aspergillus section Nigri. The procedure: (§1) The toxicity of biocides and chemicals towards the indoor Chaetomium-like isolates and the reference indoor strains of the genera Aspergillus, Paecilomyces, Penicillium and Trichoderma was assessed in parallel with the six parameters presented in the Supplementary Materials: (1) germ tube assay (Figure S3); (2) estimation of turbidity (Figure S4); (3) visual emission of fluorescence (excitation at 360 nm); (4) visual resporulation of conidia; (5) inhibition of glucose consumption; and (6) resazurin reduction. All assays were performed in malt extract broth (12 g L^−1 malt extract, 7.2 µmol mL^−1 glucose, pH 5.5; Scharlab, Barcelona, Spain) in 96-well microtiter plates as described for the ICP assay.
(§2) The assays measuring inhibition of germination of conidia were done with spore suspensions of 1–2 × 10^6 fungal spores mL−^1. The tests were performed in malt extract broth (Oxoid, Hampshire United Kingdom) 12 g in 1 L, pH 5.5, glucose 7.1 mmol L^−1, and performed on microtiter plates as described by Bencsik et al. for the ICP assay. The germ tube germination is visualized in Figure S3, and the tests estimating turbidity and emission of fluorescence provoked by the germinated and metabolically active conidia and C. globosum ascospores are visualized in Figures S4 and S5. Examples of the tests estimating fluorescence emission, turbidity and re-sporulation of conidia and ascospores are compared in Figure S5. The difference of the endpoints measured with the different assays was between […]. The resazurin reduction assays (Figure S6) were performed as described for the ICP assay, except that the microtiter plates were visually inspected for the change of the blue/violet color of resazurin (indicating inhibition of germination of the exposed conidia) to the […] (indicating metabolic activity and germination of the exposed conidia).
(§3) The formation of germ tubes was inspected by a phase-contrast microscope (Olympus CKX41, Tokyo, Japan; magnification 400×) and an image recording software (Cellsense® standard version 11.0.06, Olympus Soft Imaging Solutions GmbH, Münster, Germany, 2012) after 1 and 2 days of incubation at 28 °C. The EC50 corresponded to the inhibition of 50% (estimated as the concentration between EC0 and EC100) of the conidia compared to the ethanol control (the growth medium containing 1% of ethanol). The tests were run in triplicate and calibrated with triclosan (CAS: 3380-34-5; Sigma Chemical Co., St. Louis, MO, USA) giving a mean SD of ±<20%.

Assay [3] deals with Indoor Trichoderma atroviride H1/226. In words: Resistance to biocides: conidial germination. As to conditions: strain H1/226, indoor Trichoderma atroviride. How it is done: as §1, §2, §3
The test system of assay [4] is Aspergillus versicolor SL/3. Kind of assay: Resistance to biocides: conidial germination. The conditions noted are these: strain SL/3, Aspergillus versicolor. The procedure: as §1, §2, §3
The subject of assay [5] is Trichoderma longibrachiatum THG. Kind of assay: Resistance to biocides: conidial germination. As to conditions: strain THG, indoor Trichoderma longibrachiatum. The procedure:
as §1, §2, §3

The subject of another assay is Penicillium sp. 5/skk. Kind of assay: Resistance to biocides: conidial germination. The conditions noted are these: strain 5/skk, indoor Penicillium sp. How it is done: as §1, §2, §3
Assay [6] relates to Paecilomyces variotii Pac1/kop. In words: Resistance to biocides: conidial germination. As to conditions: strain Pac1/kop, indoor Paecilomyces variotii. The procedure: as §1, §2, §3
For assay [7], the system named is Aspergillus section Nigri Asp 32. In words: Resistance to biocides: conidial germination. The conditions noted are these: strain Asp 32, indoor Aspergillus section Nigri. How it is done: as §1, §2, §3
Assay [8] has as its system Aspergillus westerdijkiae PP2. Kind of assay: Resistance to biocides: conidial germination. As to conditions: strain PP2, Aspergillus westerdijkiae. The procedure:
as §1, §2, §3

The test system of assay [9] is Aspergillus westerdijkiae AW/KL. Kind of assay: Resistance to biocides: conidial germination. As to conditions: strain AW/KL. The procedure:
as §1, §2, §3

Assay [10] has as its system Trichoderma citrinoviride SJ40. Kind of assay: Resistance to biocides: conidial germination. As to conditions: strain SJ40, indoor Trichoderma citrinoviride. The procedure:
as §1, §2, §3

Assay [11] has as its system Indoor Trichoderma atroviride KIV10. In words: Resistance to biocides: conidial germination. As to conditions: strain KIV10, indoor Trichoderma atroviride. How it is done:
as §1, §2, §3

The subject of assay [12] is Indoor Trichoderma atroviride Ke14. In words: Resistance to biocides: conidial germination. The conditions noted are these: strain Ke14, indoor Trichoderma atroviride. How it is done: as §1, §2, §3
Assay [13] concerns porcine kidney cells (PK-15). In words: cells.
The mark [14] stands for this setting: mammalian cell line MNA (ICT assay).
Setting [15] is: mammalian cell line PK-15 (ICT assay).
Setting [16] is: Mus musculus, Neuroblastoma cell, mammalian cell line MNA (ICT assay), read-out: EC50.
Where [17] appears, read: Sus scrofa, mammalian cell line PK-15 (ICT assay), read-out: EC50.

Regarding “polyhexamethylene biguanide hydrochloride [PHMB]”, the EC50 in [1] (setting [14]) is 4 µg/mL; in assay [2], 30 µg/mL; in assay [3] it was 2 µg/mL; in assay [4], 60 µg/mL; in [5], 1 µg/mL; in the assay with Penicillium sp. 5/skk it was 8 µg/mL. In addition, the 50% effective concentration (EC50) was 30 µg/mL in assay [6]; 60 µg/mL in [7]; 60 µg/mL in assay [8]; 60 µg/mL in [9]; 2 µg/mL in [10]; 4 µg/mL in assay [11]. Also, the EC50 in [12] came to 4 µg/mL; in assay [13] (setting [15]), 15 µg/mL.

In the case of `O=BOB(O)OB(O)OB=O` [Borax, sodium tetraborate], the EC50 in [1] (setting [16]) was 150 µg/mL; in assay [2] (read-out: EC50), not below 5000 µg/mL; in assay [3] (read-out: EC50), 1200 µg/mL; in [4] (read-out: EC50) it was 5000 µg/mL; in [5] (read-out: EC50), 1200 µg/mL; in the assay on Penicillium sp. 5/skk (SP.5/SKK, read-out: EC50), 2500 µg/mL. In addition, the EC50 in assay [6] (read-out: EC50) was not below 5000 µg/mL; in [7] (read-out: EC50), not below 5000 µg/mL; in [8] (read-out: EC50), 5000 µg/mL; in assay [9] (read-out: EC50), 2500 µg/mL; in [10] (read-out: EC50), 1200 µg/mL; in [11] (read-out: EC50) it was 2500 µg/mL. The EC50 in [12] (read-out: EC50) is 1200 µg/mL; in [13] (setting [17]) it was 600 µg/mL.

Regarding `NCl` [Chloramine, chloramine], the EC50 in assay [1] (setting [14]) turned out to be 80 µg/mL (≈ 1550 µM); in assay [4] it was 600 µg/mL (≈ 11700 µM); with Penicillium sp. 5/skk it was 600 µg/mL (≈ 11700 µM); in assay [8] it was 600 µg/mL (≈ 11700 µM); in assay [9], 600 µg/mL (≈ 11700 µM); in assay [11], 2400 µg/mL (≈ 46600 µM). In [13] (setting [15]), this compound yielded an EC50 of 150 µg/mL (≈ 2910 µM).

With `Oc1cc(Cl)ccc1Oc1ccc(Cl)cc1Cl` [Triclosan, 5-Chloro-2-(2,4-dichlorophenoxy)phenol], the EC50 is 4 to 8 µg/mL (≈ 13.8 to 27.6 µM) in assay [1] (setting [16]); 16 µg/mL (≈ 55.3 µM) in [2] (read-out: EC50); 16 µg/mL (≈ 55.3 µM) in assay [3] (read-out: EC50); 16 µg/mL (≈ 55.3 µM) in assay [4] (read-out: EC50); 16 µg/mL (≈ 55.3 µM) in assay [5] (read-out: EC50); 2 µg/mL (≈ 6.91 µM) with Penicillium sp. 5/skk (SP.5/SKK, read-out: EC50). In addition, the 50% effective concentration (EC50) in assay [6] (read-out: EC50) was found to be 4 µg/mL (≈ 13.8 µM); in [7] (read-out: EC50), 16 µg/mL (≈ 55.3 µM); in assay [8] (read-out: EC50), 16 µg/mL (≈ 55.3 µM); in assay [9] (read-out: EC50), 16 µg/mL (≈ 55.3 µM); in [10] (read-out: EC50), 8 µg/mL (≈ 27.6 µM); in assay [11] (read-out: EC50), 30 µg/mL (≈ 104 µM). Also, the figures for the EC50 in assay [12] (read-out: EC50) and in [13] (setting [17]) were 16 µg/mL (≈ 55.3 µM) and 8 to 15 µg/mL (≈ 27.6 to 51.8 µM), respectively.

For `C/C1=C\[C@@H](C)C/C=C/[C@H]2[C@@H]3O[C@]3(C)[C@@H](C)[C@H]3[C@H](Cc4c[nH]c5ccccc45)NC(=O)[C@]32C(=O)/C=C/C(=O)[C@@H]1O` [Chaetoglobosin A, chaetoglobosin A], the EC50 in [1] (Mus musculus, Neuroblastoma cell, 48 h, MNA, 2 days, 37 °C, read-out: EC50 ICP MNA 2 days) was 1 µg/mL (≈ 1.89 µM); in [13] (Sus scrofa, 48 h, PK-15, 2 days, 37 °C, read-out: EC50 ICP PK-15 2 days), 3 µg/mL (≈ 5.67 µM).

With `OCCOc1ccccc1` [Phenoxy-ethanol, phenoxyethanol], the half-maximal effective concentration (EC50) in [1] (setting [16]) amounted to 400 µg/mL (≈ 2900 µM); in [2] (read-out: EC50), 3000 µg/mL (≈ 21700 µM); in assay [3] (read-out: EC50) it was 1500 µg/mL (≈ 10900 µM); in assay [4] (read-out: EC50) it was 800 µg/mL (≈ 5790 µM); in assay [5] (read-out: EC50), 1500 µg/mL (≈ 10900 µM); with Penicillium sp. 5/skk (SP.5/SKK, read-out: EC50) it was 1500 µg/mL (≈ 10900 µM). Further, the EC50 was determined as 3000 µg/mL (≈ 21700 µM) in [6] (read-out: EC50); 3000 µg/mL (≈ 21700 µM) in assay [7] (read-out: EC50); 1500 µg/mL (≈ 10900 µM) in [8] (read-out: EC50); 1500 µg/mL (≈ 10900 µM) in assay [9] (read-out: EC50); 1500 µg/mL (≈ 10900 µM) in assay [10] (read-out: EC50); 3000 µg/mL (≈ 21700 µM) in assay [11] (read-out: EC50). In addition, the EC50 in [12] (read-out: EC50) and in assay [13] (setting [17]) was 1500 µg/mL (≈ 10900 µM) throughout.
